Measurements published in patent EP4800018A1, “PAN-KRAS INHIBITOR AND USE THEREOF IN MEDICINES” (Betta Pharmaceuticals Co., Ltd., priority 2023, dated 2025).

What was measured:
[1] = system: KRAS-G12V mutant tumor cells SW620; assay: Cell Proliferation Inhibition Assay (SW620), Cell-titer GLO, 96 h; type: cell-based; conditions: Homo sapiens, SW-620, 96 h, SW620 cells, 96 h incubation, Cell-titer GLO; read-out: SW620(G12V)
Experimental: (§1) KRAS-G12V mutant tumor cells SW620 were seeded in low-attachment 96-well plates at a cell density of 1×10^3 cells/well and cultured overnight in a cell culture incubator. After the cells adhered, the test compounds were added to the 96-well plates at final concentrations of 10000, 2000, 400, 80, 16, 3.2, 0.64, 0.13, 0.03, 0 nM (final concentration of DMSO was 0.5% for all). After incubation at 37°C for 96 h, 50 µL of Cell-titer GLO working solution was added to each well, mixed by shaking, incubated at room temperature for 10 min, and the Luminescence value was read on a multi-function microplate reader. The luminescence data were calculated and converted into inhibition percent. The inhibition percent of cell proliferation was calculated according to the following formula: Inhibition Percent = (MaxValue−MeasuredValue)/(MaxValue−Blank) × 100% [formula]
("Max Value" comes from the 0.5% DMSO control well, "Blank" comes from the blank control well, and "Measured Value" comes from the compound-treated well).
Curve fitting was performed using GraphPad Prism software to obtain IC50 values, see Table 1.

[2] = system: KRAS-G12D mutant tumor cells AGS; assay: Cell Proliferation Inhibition Assay (AGS), Cell-titer GLO, 96 h; type: cell-based; conditions: Homo sapiens, AGS, 96 h, AGS cells, 96 h incubation, Cell-titer GLO; read-out: AGS(G12D)
Experimental: as §1, with “KRAS-G12D” for “KRAS-G12V”, “AGS” for “SW620”, “After the cells adhered, the test compounds were added to the 96-well plates at final concentrations of 10000, 2000, 400, 80, 16, 3.2, 0.64, 0.13, 0.03, 0 nM (final concentration of DMSO was 0.5% for all).” left out, “[formula] […] Curve fitting was performed using GraphPad Prism software to obtain IC50 values, see Table 1.” for “[formula]”

Structure (SMILES) | IC50 [1] | IC50 [2]
C[C@@H]1[C@H](C)[C@H]1C(=O)N[C@H]1Cc2nc(cs2)-c2ccc3c(c2)c(c2n3CCCO[C@@H](C)c3ncc(N4C[C@@H](C)O[C@@H](C)C4)cc3-2)CC(C)(C)COC(=O)[C@@H]2CCCN(N2)C1=O [Example 166, (1r,2R,3S)-N-((1^5S,6^3S,4S,Z)-1^2-((2S,6R)-2,6-dimethylmorpholino)-1^5,10,10-trimethyl-5,7-dioxo-1^8,1^9,6^1,6^2,6^3,6^4,6^5,6^6-octahydro-1^5H,1^7H-8-oxa-1(13,15)-pyrido[3',2':7,8][1,5]oxazonino[5,6-a]indola-2(4,2)-thiazola-6(1,3)-pyridazinacycloundecaphane-4-yl)-2,3-dimethylcyclopropane-1-ca rboxamide] | 0.14 nM | 0.36 nM
C[C@@H]1OCCCn2c(c3c4cc(ccc42)-c2csc(n2)C[C@H](NC(=O)[C@H]2C[C@@H]2C(F)F)C(=O)N2CCC[C@H](N2)C(=O)OCC(C)(C)C3)-c2cc(N3C[C@@H]4CCN(C)[C@@H]4C3)cnc21 [Example 163, (1S,2S)-2-(difluoromethyl)-N-((1^5S,6^3S,4S,Z)-1^5,10,10-trimethyl-1^2-((3aS,6aS)-1-methylhexahydropyrrolo[3,4-b]pyrrol-5(1H)-yl)-5,7-dioxo-1^8,1^9,6^1,6^2,6^3,6^4,6^5,6^6-octahydro-1^5H,1^7H-8-oxa-1(1 3,15)-pyrido[3',2':7,8][1,5]oxazonino[5,6-a]indola-2(4,2)-thiazola-6(1,3)-pyridazinacycloundecaphane-4-yl)cyclopropane-1-carboxamide] | 0.2 nM | 1.44 nM
C[C@@H]1[C@H](C)[C@H]1C(=O)N[C@H]1Cc2nc(cs2)-c2ccc3c(c2)c(c2n3CCCO[C@@H](C)c3ncc(CN4CCOCC4)cc3-2)CC(C)(C)COC(=O)[C@@H]2CCCN(N2)C1=O [Example 194, (1r,2R,3S)-2,3-dimethyl-N-((1^5S,6^3S,4S,Z)-1^5,10,10-trimethyl-1^2-(morpholinomethyl)-5,7-dioxo-1^8,1^9,6^1,6^2,6^3,6^4,6^5,6^6-octahydro-1^5H,1^7H-8-oxa-1(13,15)-pyrido[3',2':7,8][1,5]oxazonino[5,6-a]indola-2(4,2)-thiazola-6(1,3)-pyridazinacycloundecaphane-4-yl)cyclopropane-1-carboxamide] | 1.4 nM | 3 nM
CC(C)[C@@H](C(=O)N[C@H]1Cc2nc(cs2)-c2ccc3c(c2)c(c2n3CCCO[C@@H](C)c3ncc(N4CCN(C)CC4)cc3-2)CC(C)(C)COC(=O)[C@H]2NN(C1=O)C1CC2C1)N(C)C(=O)N(C)C [Example 204, (2S)-3-methyl-N-((1^5S,6^4S,4S,Z)-1^5,10,10-trimethyl-1^2-(4-methylpiperazin-1-yl)-5,7-dioxo-1^8,1^9-dihydro-1^5H,1^7H-8-oxa-6^2,6^3-diaza-1(13,15)-pyrido[3',2':7,8][1,5]oxazonino[5,6-a]indola-2(4,2) -thiazola-6(2,4)-bicyclo[3.1.1]heptanacycloundecaphane-4-yl)-2-(1,3,3-trimethylureido)butanamide] | 0.2 nM | 0.4 nM
CCN1CCN(c2cnc3c(c2)-c2c4c5cc(ccc5n2C[C@@H](OC)CO[C@H]3C)-c2csc(n2)C[C@H](NC(=O)[C@H]2C[C@@H]2C)C(=O)N2CCC[C@H](N2)C(=O)OCC(C)(C)C4)CC1 [Example 203, (1S,2S)-N-((1^5S,1^8R,6^3S,4S,Z)-1^2-(4-ethylpiperazin-1-yl)-1^8-methoxy-1^5,10,10-trimethyl-5,7-dioxo-1^8,1^9,6^1,6^26^3,6^4,6^5,6^6-octahydro-1^5H,1^7H-8-oxa-1(13,15)-pyrido[3',2':7,8][1,5]oxazonino[5,6-a]indola-2(4,2)-thiazola-6(1,3)-pyridazinacycloundecaphane-4-yl)-2-methylcyclopropane-1-carb oxamide] | 3.3 nM | 2.1 nM
C[C@@H]1OCCCn2c(c3c4cc(ccc42)-c2csc(n2)C[C@H](NC(=O)[C@H]2C[C@@H]2C(F)F)C(=O)N2CCC[C@H](N2)C(=O)OCC(C)(C)C3)-c2cc(N(C)C3CCN(C)C3)cnc21 (stereo partly drawn) [Example 160, (1S,2S)-2-(difluoromethyl)-N-((1^5S,6^3S,4S,Z)-1^5,10,10-trimethyl-1^2-(methyl(1-methylpyrrolidin-3-yl)amino)-5,7-dioxo-1^8,1^9,6^1,6^2,6^3,6^4,6^5,6^6-octahydro-1^5H,1^7H-8-oxa-1(13,15)-pyrido[3',2':7,8][1,5]oxazonino[5,6-a]indola-2(4,2)-thiazola-6(1,3)-pyridazinacycloundecaphane-4-yl)cycloprop ane-1-carboxamide] | 0.98 nM | 2.25 nM
CC1OCCCn2c(c3c4cc(ccc42)-c2csc(n2)CC(NC(=O)C2COC2)C(=O)N2NC(C(=O)OCC(C)(C)C3)C3CC2C3)-c2cc(N3CCN(C)CC3)cnc21 [Example 199, N-((1^5S,6^4S,4S,Z)-1^5,10,10-trimethyl-1^2-(4-methylpiperazin-1-yl)-5,7-dioxo-1^8,1^9-dihydro-1^5H, 1 ^7H-8-oxa-6^2,6^3-diaza-1(13,15)-pyrido[3',2':7,8][1,5]oxazonino[5,6-a]indola-2(4,2)-thiazola-6(2,4)-bicyclo[3.1.1]heptanacycloundecaphane-4-yl)oxetane-3-carboxamide] | 4.1 nM | 39 nM
C[C@@H]1OCCCn2c(c3c4cc(ccc42)-c2csc(n2)C[C@H](NC(=O)[C@H]2C[C@@H]2C(F)F)C(=O)N2CCC[C@H](N2)C(=O)OCC(C)(C)C3)-c2cc(OC[C@@H]3CCCCN3C)cnc21 [Example 156, (1S,2S)-2-(difluoromethyl)-N-((1^5S,6^3S,4S,Z)-1^5,10,10-trimethyl-1^2-(((S)-1-methylpiperidin-2-yl)methoxy)-5,7-dioxo-1^8,1^9,6^1,6^26^36^4,6^5,6^6-octahydro-1^5H,1^7H-8-oxa-1(13,15)-pyrido[3',2':7,8][1,5]oxazonino[5,6-a]indola-2(4,2)-thiazola-6(1,3)-pyridazinacycloundecaphane-4-yl)cyclopropane-1-carboxamide] | – | 8.27 nM
C[C@@H]1OCCCn2c(c3c4cc(ccc42)-c2csc(n2)C[C@H](NC(=O)[C@H]2C[C@@H]2C(F)F)C(=O)N2CCC[C@H](N2)C(=O)OCC(C)(C)C3)-c2cc(N3C[C@@H]4C[C@H]3CN4C)cnc21 [Example 155, (1S,2S)-2-(difluoromethyl)-N-((1^5S,6^3S,4S,Z)-1^5,10,10-trimethyl-1^2-((1S,4S)-5-methyl-2,5-diazabicyclo[2.2.1]heptan-2-yl)-5,7-dioxo-1^8,1^9,6^1,6^26^3,6^4,6^5,6^6-octahydro-1^5H,1^7H-8-oxa-1(13,15)-pyrido[3',2':7,8][1,5]oxazonino[5,6-a]indola-2(4,2)-thiazola-6(1,3)-pyridazinacycloundecaphane-4-yl)cyclopropane-1-carboxamide] | 0.62 nM | 1.38 nM
C[C@@H]1OCCCn2c(c3c4cc(ccc42)-c2csc(n2)C[C@H](NC(=O)[C@H]2C[C@@H]2C(F)F)C(=O)N2CCC[C@H](N2)C(=O)OCC(C)(C)C3)-c2cc(N3CCOC(C)(C)C3)cnc21 [Example 153, (1S,2S)-2-(difluoromethyl)-N-((1^5S,6^3S,4S,Z)-1^2-(2,2-dimethylmorpholino)-1^5,10,10-trimethyl-5 ,7-dioxo-1^8,1^9,6^1,6^2,6^3,6^4,6^5,6^6-octahydro-1^5H,^17H-8-oxa-1(13,15)-pyrido[3',2':7,8][1,5]oxazonino[5,6-a]indola-2(4,2)-thiazola-6(1,3)-pyridazinacycloundecaphane-4-yl)cyclopropane-1-carboxamide] | 0.28 nM | 1.33 nM
CCN1CCN(c2cnc3c(c2)-c2c4c5cc(ccc5n2CCCOC3C)-c2csc(n2)CC(NC(=O)C2C3COCC32)C(=O)N2CCCC(N2)C(=O)OCC(C)(C)C4)CC1 [Example 162, (3R,4r,5S)-N-((1^5S,6^3S,4S,Z)-1^2-(4-ethylpiperazin-1-yl)-1^5,10,10-trimethyl-5,7-dioxo-1^8,1^9,6^1,6^2 ,6^3,6^4,6^5,6^6-octahydro-1^5H,1^7H-8-oxa-1(13,15)-pyrido[3',2':7,8][1,5]oxazonino[5,6-a]indola-2(4, 2)-thiazola-6(1,3)-pyridazinacycloundecaphane-4-yl)tetrahydro-2H-pyran-4-carboxamide] | – | 1.08 nM
C[C@@H]1OCCCn2c(c3c4cc(ccc42)-c2csc(n2)C[C@H](NC(=O)[C@H]2C[C@@H]2C(F)F)C(=O)N2CCC[C@H](N2)C(=O)OCC(C)(C)C3)-c2cc(OCCN3CCOCC3)cnc21 [Example 157, (1S,2S)-2-(difluoromethyl)-N-((1^5S,6^3S,4S,Z)-1^5,10,10-trimethyl-1^2-(2-morpholinoethoxy)-5,7-dioxo-1^8,1^9,6^1,6^2,6^3,6^4,6^5,6^6-octahydro-1^5H,1^7H-8-oxa-1(13,15)-pyrido[3',2':7,8][1,5]oxazonino[5,6-a]indola-2(4,2)-thiazola-6(1,3)-pyridazinacycloundecaphane-4-yl)cyclopropane-1-carboxamide] | 0.58 nM | 3.31 nM
